According to patent US7560466B2, “Methods of treating or preventing autoimmune diseases with 2,4-pyrimidinediamine compounds” (Rigel Pharmaceuticals, Inc., priority 2003, dated 2009):

tested on: cultured human mast cells (CHMC), IgE-induced degranulation; test: CHMC low cell density IgE activation: tryptase assay; type: cell-based; conditions: CHMC low cell density, 3pt, read-out: LD Tryptase, CHMC, IgE, 3pt
Procedure: Inhibition of degranulation was measured at both low and high cell density by quantifying the release of the granule specific factors tryptase, histamine and hexosaminidase. Inhibition of release and/or synthesis of lipid mediators was assessed by measuring the release of leukotriene LTC4 and inhibition of release and/or synthesis of cytokines was monitored by quantifying TNF-α, IL-6 and IL-13. Tryptase and hexosaminidase were quantified using fluorogenic substrates as described in their respective examples. […] The protocols of the various assays are provided below.
A second phase is performed to convert the expanded CD34-negative progenitor cells into differentiated mucosal mast cells. These mucosal cultured human mast cells (“CHMC”) are derived from CD34+ cells isolated from umbilical cord blood and treated to form a proliferated population of CD34-negative progenitor cells, as described above. […] Also, the cytokine composition of the medium was modified such that it contained SCF (200 ng/mL) and recombinant human IL-6 (200 ng/mL; Peprotech, Catalog No. 200-06 reconstituted to 100 ug/mL in sterile 10 mM acetic acid) (“CM/SCF/IL-6 medium”).
Pellet CHMC cells (980 rpm, 10 min) and resuspend in pre-warmed MT. Add 65 ul of cells to each 96-well plate. Depending on the degranulation activity for each particular CHMC donor, load 1000-1500 cells/well. Mix four times followed by a 1 hr incubation at 37° C. […] Stimulate cells by adding 25 ul of 6× anti-IgE solution to the appropriate plates. Add 25 ul MT to un-stimulated control wells. Mix twice following addition of the anti-IgE. Incubate at 37° C. for 30 minutes. […] Spin plates at 1000 rpm for 10 min to pellet cells. Transfer 25 ul of supernatant to a 96-well black bottom plate and add 100 ul of freshly diluted tryptase substrate solution to each well. Incubate plates at room temperature for 30 min.
In Table 1, all reported values are IC50s (in μM). […] In Table 1, all reported values are IC50s (in μM).

Compound	IC50 [µM]
Cc1cc(C)cc(Nc2ncc(F)c(Nc3ccc4c(c3)OC(F)(F)C(F)(F)O4)n2)c1 [Compound 362, N2-(3,5-Dimethyphenyl)-5-fluoro-N4-[3,4-(tetrafluoroethylenedioxy)phenyl]-2,4-pyrimidinediamine]	< 10
Cc1cc(Nc2ncc(F)c(Nc3ccc4c(c3)OC(F)(F)C(F)(F)O4)n2)cc(C(F)(F)F)c1 [Compound 366, 5-Fluoro-N2-(3-methyl-5-trifluoromethyl)-N4-[3,4-(tetrafluoroethylenedioxy)phenyl]-2,4-pyrimidinediamine]	< 10
CN(c1ccc2c(c1)OCCO2)c1nc(NN)ncc1F [Compound 533, N4-(3,4-Ethylenedioxyphenyl)-5-fluoro-N4-methyl-2-hydrazine-4-pyrimidinea mine]	> 10
CNC(=O)COc1c(C)cc(Nc2ncc(F)c(Nc3ccc4c(c3)OCCO4)n2)cc1C [Compound 572, N2-[3,5-dimethyl-4-(N-methylamino)carbonylmethyleneoxyphenyl]-N4-(3,4-ethylenedioxyphenyl)-5-fluoro-2,4-pyrimidinediamine]	< 10
CNC(=O)COc1c(C)cc(Nc2ncc(F)c(Nc3ccc4c(c3)NC(=O)C(C)(C)O4)n2)cc1C [Compound 574, N2-[3,5-dimethyl-4-(N-methylamino)carbonylmethyleneoxyphenyl]-N4-(2,2-dimethyl-3-oxo-4H-benz[1,4]oxazin-6-yl)-5-fluoro-2,4-pyrimidinediamine]	< 10
COc1cc(Nc2ncc(F)c(Nc3ccc4c(n3)NC(=O)C(C)(C)O4)n2)cc(OC)c1OC.O=S(=O)(O)c1ccc(O)cc1 [Compound 676, N4-(2,2-Dimethyl-3-oxo-4H-5-pyrid[1,4]oxazin-6-yl)-5-fluoro-N2-(3,4,5-trimethoxyphenyl)-2,4-pyrimidinediamine 4-Hydroxybenzenesulfonic Acid Salt]	< 10

same assay, conditions: CHMC low cell density, 8pt, read-out: LD Tryptase, CHMC, IgE, 8pt

Compound	IC50 [µM]
Cc1cc(C)cc(Nc2ncc(F)c(Nc3ccc4c(c3)OC(F)(F)C(F)(F)O4)n2)c1 [Compound 362, N2-(3,5-Dimethyphenyl)-5-fluoro-N4-[3,4-(tetrafluoroethylenedioxy)phenyl]-2,4-pyrimidinediamine]	> 10
CNC(=O)COc1c(C)cc(Nc2ncc(F)c(Nc3ccc4c(c3)OCCO4)n2)cc1C [Compound 572, N2-[3,5-dimethyl-4-(N-methylamino)carbonylmethyleneoxyphenyl]-N4-(3,4-ethylenedioxyphenyl)-5-fluoro-2,4-pyrimidinediamine]	< 10
CNC(=O)COc1c(C)cc(Nc2ncc(F)c(Nc3ccc4c(c3)NC(=O)C(C)(C)O4)n2)cc1C [Compound 574, N2-[3,5-dimethyl-4-(N-methylamino)carbonylmethyleneoxyphenyl]-N4-(2,2-dimethyl-3-oxo-4H-benz[1,4]oxazin-6-yl)-5-fluoro-2,4-pyrimidinediamine]	< 10
CNC(=O)Cn1ccc2cc(Nc3ncc(F)c(Nc4ccc5c(c4)OCCO5)n3)ccc21 [Compound 655, N4-(3,4-Ethylenedioxyphenyl)-5-fluoro-N2-[1-(N-methylamino)carbonylmethyleneindol-5-yl]-2,4-pyrimidinediamine]	< 10
COc1cc(Nc2ncc(F)c(Nc3ccc4c(n3)NC(=O)C(C)(C)O4)n2)cc(OC)c1OC.O=S(=O)(O)c1ccc(O)cc1 [Compound 676, N4-(2,2-Dimethyl-3-oxo-4H-5-pyrid[1,4]oxazin-6-yl)-5-fluoro-N2-(3,4,5-trimethoxyphenyl)-2,4-pyrimidinediamine 4-Hydroxybenzenesulfonic Acid Salt]	< 10

same assay, conditions: Homo sapiens, Mast cell, low cell density CHMC, 8pt, read-out: LD Tryptase, CHMC, IgE, 8pt

Compound	IC50 [µM]
O=C1COc2cc(Nc3nc(Nc4ccc(-c5ncco5)cc4)ncc3F)ccc2N1 [Compound 241]	< 10
OC=C1C=C(Nc2ncc(F)c(Nc3ccc4c(c3)OCCO4)n2)CC(=CO)C1 [Compound 342]	< 10

same assay, conditions: low cell density CHMC, 3pt, read-out: LD Tryptase, CHMC, IgE, 3pt

Compound	IC50 [µM]
CC1Sc2ccc(Nc3nc(Cl)ncc3F)cc2NC1=O (racemic) [Compound 314, racemic-N2-Chloro-5-fluoro-N4-(2-methyl-3-oxo-2H,4H-benzo[1,4]thiazin-6-yl)-4-pyrimidinea mine]	< 10
CC1C(=O)Nc2cc(Nc3nc(Cl)ncc3F)ccc2S1(=O)=O (racemic) [Compound 317, racemic-N2-Chloro-5-fluoro-N4-(2-methyl-1,1,3-trioxo-2H,4H-benzo[1,4]thiazin-6-yl)-4-pyrimidinea mine]	> 10
CNC(=O)COc1cccc(Nc2ncc(F)c(Nc3ccc4c(c3)NC(=O)C(C)(C)S4)n2)c1 [Compound 294, N4-(2,2-Dimethyl-3-oxo-4H-benzo[1,4]thiazin-6-yl)-5-fluoro-N2-[3-(N-methylamino)carbonylmethyleneoxyphenyl]-2,4-pyrimidinediamine]	< 10
COc1ccc(Nc2ncc(F)c(Nc3ccc4c(c3)NC(=O)C(C)(C)S4)n2)cc1F [Compound 299]	< 10
O=C1CSc2ccc(Nc3nc(Cl)ncc3F)cc2N1 [Compound 313, N2-Chloro-5-fluoro-N4-(3-oxo-2H,4H-benzo[1,4]thiazin-6-yl)-4-pyrimidinea mine]	< 10
O=C1CS(=O)(=O)c2ccc(Nc3nc(Cl)ncc3F)cc2N1 [Compound 315, N2-Chloro-5-fluoro-N4-(1,1,3-trioxo-2H,4H-benzo[1,4]thiazin-6-yl)-4-pyrimidinea mine]	> 10
CC1(C)Sc2ccc(Nc3nc(Cl)ncc3F)cc2NC1=O [Compound 316, N2-Chloro-N4-(2,2,-dimethyl-3-oxo-4H-benzo[1,4]thiazin-6-yl)-5-fluoro-4-pyrimidinea mine]	< 10
CC1(C)C(=O)Nc2cc(Nc3nc(Cl)ncc3F)ccc2S1(=O)=O [Compound 318, N2-Chloro-N4-(2,2-dimethyl-1,1,3-trioxo-4H-benzo[1,4]thiazin-6-yl)-5-fluoro-4-pyrimidinea mine]	< 10
CC1(C)COc2ccc(Nc3nc(Cl)ncc3F)cc2N1 [Compound 320, N2-Chloro-N4-(3,3-dimethyl-1,4-benzoxazin-6-yl)-5-fluoro-pyrimidinea mine]	< 10
CNC(=O)n1ccc2ccc(Nc3ncc(F)c(Nc4ccc5c(c4)NC(=O)C(C)(C)O5)n3)cc21 [Compound 347, N4-(2,2-Dimethyl-3-oxo-4H-benz[1,4]oxazin-6-yl)-N2-[1-(N-methylaminocarbony)lindol-6-yl)-5-fluoro-2,4-pyrimidinediamine]	< 10

same assay, conditions: low cell density CHMC, 8pt, read-out: LD Tryptase, CHMC, IgE, 8pt

Compound	IC50 [µM]
CC1C(=O)Nc2cc(Nc3nc(Nc4cccc(O)c4)ncc3F)ccc2S1(=O)=O (racemic) [Compound 284, racemic-5-Fluoro-N2-[3-hydoxyphenyl]-N4-(2-methyl-1,1,3-trioxo-2H,4H-benzo[1,4]thiazin-6-yl)-2,4-pyrimidinediamine]	< 10
CNC(=O)COc1cccc(Nc2ncc(F)c(Nc3ccc4c(c3)NC(=O)C(C)S4(=O)=O)n2)c1 (racemic) [Compound 285, racemic-5-Fluoro-N2-[3-(N-methylamino)carbonylmethyleneoxyphenyl]-N4-(2-methyl-1,1,3-trioxo-2H,4H-benzo[1,4]thiazin-6-yl)-2,4-pyrimidinediamine]	< 10
C[C@H]1Oc2ccc(Nc3nc(Nc4cc5c6c(c4)c(CCO)cn6CCO5)ncc3F)cc2NC1=O [Compound 205, (R)-5-Fluoro-N2-[6-(2-hydroxyethyl)-2,3-dihydropyrrolo[1,2,3-d,e]benzoxazin-8-yl]-N4-(2-methyl-3-oxo-2H,4H-benz[1,4]oxazin-6-yl)-2,4-pyrimidinediamine]	< 10
CC1(C)COc2ccc(Nc3nc(Nc4cc5c6c(c4)c(CCO)cn6CCO5)ncc3F)cc2N1 [Compound 206, N4-(3,4-Dihydro-3,3-dimethyl-2H,4H-benz[1,4]oxazin-6-yl)-5-fluoro-N2-[6-(2-hydroxyethyl)-2,3-dihydropyrrolo[1,2,3-d,e]benzoxazin-8-yl]-2,4-pyrimidinediamine]	< 10
CNC(=O)COc1cccc(Nc2ncc(F)c(Nc3ccc4c(c3)NC(=O)C(C)(C)S4(=O)=O)n2)c1 [Compound 275, N4-(2,2-Dimethyl-1,1,3-trioxo-4H-benzo[1,4]thiazin-6-yl)-5-fluoro-N2-[3-(N-methylamino)carbonylmethyleneoxyphenyl]-2,4-pyrimidinediamine]	< 10
COc1ccc(Nc2ncc(F)c(Nc3ccc4c(c3)NC(=O)C(C)(C)S4(=O)=O)n2)cc1Cl [Compound 276]	< 10
CNC(=O)COc1cccc(Nc2ncc(F)c(Nc3ccc4c(c3)NC(=O)C(C)S4)n2)c1 (stereo not drawn) [Compound 279, 5-Fluoro-N2-[3-(N-methylamino)carbonylmethyleneoxyphenyl]-N4-(2-methyl-3-oxo-2H,4H-benzo[1,4]thiazin-6-yl)-2,4-pyrimidinediamine]	< 10
CC1(C)C(=O)Nc2cc(Nc3nc(Nc4cccc(O)c4)ncc3F)ccc2S1(=O)=O [Compound 283, racemic-N4-(2,2-Dimethyl-1,1,3-trioxo-4H-benzo[1,4]thiazin-6-yl)-5-fluoro-N2-[3-hydoxyphenyl]-2,4-pyrimidinediamine]	< 10
COc1ccc(Nc2ncc(F)c(Nc3ccc4c(c3)NC(=O)C(C)(C)S4)n2)cc1Cl [Compound 289]	< 10
CNC(=O)COc1cccc(Nc2ncc(F)c(Nc3ccc4c(c3)NC(=O)C(C)(C)S4)n2)c1 [Compound 294, N4-(2,2-Dimethyl-3-oxo-4H-benzo[1,4]thiazin-6-yl)-5-fluoro-N2-[3-(N-methylamino)carbonylmethyleneoxyphenyl]-2,4-pyrimidinediamine]	< 10
COc1ccc(Nc2ncc(F)c(Nc3ccc4c(c3)NC(=O)C(C)(C)S4)n2)cc1F [Compound 299]	< 10
CNC(=O)COc1cccc(Nc2ncc(F)c(Nc3ccc4c(c3)NC(=O)CS4(=O)=O)n2)c1 [Compound 305, 5-Fluoro-N2-[3-(N-methylamino)carbonylmethyleneoxyphenyl]-N4-(1,1,3-trioxo-2H,4H-benzo[1,4]thiazin-6-yl)-2,4-pyrimidinediamine]	< 10
COc1cc(Nc2ncc(F)c(Nc3ccc4c(c3)NC(=O)CS4(=O)=O)n2)cc(OC)c1OC [Compound 306, 5-Fluoro-N2-(3,4,5-triimethoxylphenyl)-N4-(1,1,3-trioxo-2H,4H-benzo[1,4]thiazin-6-yl)-2,4-pyrimidinediamine]	< 10
